From patent publication US9688615B2, “Benzimidazole inhibitors of the sodium channel” (Mark G. DeGiacomo, priority 2011, dated 2017)
Where two headings read alike, the source gives them in different places.

Test system: L5/L6 spinal nerve ligation (SNL) rats, mechanical hyperalgesia
Experiment: L5/L6 Spinal Nerve Ligation (SNL) Chung pain model, assessment of mechanical hyperalgesia (digital Randall-Selitto)
Assay type: in vivo, male Sprague-Dawley rats
Settings: p.o.; for Response Threshold (g) 1 hr / Response Threshold (g) 2 hr / Response Threshold (g) 4 hr / effect on mechanical hyperalgesia compared to vehicle treated animals / inhibition in vivo at 30 mg/kg: 30 mg/kg; for effect on mechanical hyperalgesia compared to vehicle treated animals: time points 1, 2, 4 hours after administration
From the text: The Spinal Nerve Ligation is an animal model representing peripheral nerve injury generating a neuropathic pain syndrome. In this model experimental animals develop the clinical symptoms of tactile allodynia and hyperalgesia. L5/L6 Spinal nerve ligation (SNL) injury was induced using the procedure of Kim and Chung (Kim et al., Pain 50:355-363 (1992)) in male Sprague-Dawley rats (Harlan; Indianapolis, Ind.) weighing 200 to 250 grams. An exemplary protocol is provided below
The animals were anesthetized with isoflurane, the left L6 transverse process was removed, and the L5 and L6 spinal nerves were tightly ligated with 6-0 silk suture. The wound was closed with internal sutures and external tissue adhesive.
Baseline and post-treatment values for mechanical hyperalgesia were evaluated using a digital Randall-Selitto device (dRS; IITC Life Sciences, Woodland Hills, Calif.). Animals were allowed to acclimate to the testing room for a minimum of 30 minutes before testing. Animals were placed in a restraint sling that suspends the animal, leaving the hind limbs available for testing. Paw compression threshold was measured once at each time point for the ipsilateral and contralateral paws. The stimulus was applied to the plantar surface of the hind paw by a dome-shaped tip placed between the 3rd and 4th metatarsus, and pressure was applied gradually over approximately 10 seconds. Measurements are taken from the first observed nocifensive behavior of vocalization, struggle or withdrawal. A cut-off value of 300 g was used to prevent injury to the animal. The mean and standard error of the mean (SEM) were determined for each paw for each treatment group. Fourteen days after surgery, mechanical hyperalgesia was assessed and rats were assigned to treatment groups based on pre-treatment baseline values. Prior to initiating drug delivery, baseline behavioural testing data can be obtained. At selected times after infusion of the Test or Control Article behavioural data can then be collected again.

[1] = Rattus norvegicus, po, 1 hr after administration, read-out: % Reversal 1 hr
[2] = Rattus norvegicus, po, 2 hr after administration, read-out: % Reversal 2 hr
[3] = Rattus norvegicus, po, 4 hr after administration, read-out: % Reversal 4 hr

| Compound | Response Threshold (g) 1 hr (1 hr after administration) [g] | Response Threshold (g) 2 hr (2 hr after administration) [g] | Response Threshold (g) 4 hr (4 hr after administration) [g] | effect on mechanical hyperalgesia compared to vehicle treated animals | inhibition in vivo at 30 mg/kg [1] [%] | inhibition in vivo at 30 mg/kg [2] [%] | inhibition in vivo at 30 mg/kg [3] [%] | inhibition in vivo at 100 mg/kg (Rattus norvegicus, po, 2 h, 100 mg/kg, 2 hr after administration, read-out: % Reversal 2 hr) [%] |
| --- | --- | --- | --- | --- | --- | --- | --- | --- |
| CNCc1nc2cc(C(F)(F)F)cc(C(F)(F)F)c2[nH]1 [Compound (41), 1-(5,7-bis(trifluoromethyl)-1H-benzo[d]imidazol-2-yl)-N-methylmethanamine] | 99.6 | 108.3 | 109.0 | significantly decreased mechanical hyperalgesia at 2 and 4 hours | 13.8 | 20.7 | 21.3 |  |
| FC(F)(F)c1cc(C(F)(F)F)c2nc(CC3CNC3)[nH]c2c1 [Compound (1), 2-(azetidin-3-ylmethyl)-4,6-bis(trifluoromethyl)-1H-benzo[d]imidazole] | 93.8 | 120.6 | 113.3 | significantly decreased mechanical hyperalgesia at 2 and 4 hours | 9.2 | 30.2 | 24.4 |  |
| CC(C)C[C@H](CN)Cc1nc2c(C(F)(F)F)cc(C(F)(F)F)cc2[nH]1 [Compound (31), (S)-2-((4,6-bis(trifluoromethyl)-1H-benzo[d]imidazol-2-yl)methyl)-4-methylpentan-1-amine] | 107.9 | 139.0 | 109.9 | significantly decreased mechanical hyperalgesia 2 and 4 hours | 17.2 | 48 | 19.2 |  |
| CC(C)(N)C(=O)NCc1nc2cc(C(F)(F)F)cc(C(F)(F)F)c2[nH]1 [Compound (36), 2-amino-N-((5,7-bis(trifluoromethyl)-1H-benzo[d]imidazol-2-yl)methyl)-2-methylpropanamide] | 87.8 | 107.0 | 112.3 | no significant effect on mechanical hyperalgesia at any time point tested | -0.5 | 18.6 | 23.8 |  |
| CC(C)(N)Cc1nc2cc(C(F)(F)F)cc(C(F)(F)F)c2[nH]1 [Compound (34), 1-(5,7-bis(trifluoromethyl)-1H-benzo[d]imidazol-2-yl)-2-methylpropan-2-amine] | 104.5 | 144.8 | 132.4 | significantly decreased mechanical hyperalgesia 2 and 4 hours | 15.3 | 54.2 | 42.3 |  |
| NCCc1nc2cc(C(F)(F)F)cc(C(F)(F)F)c2[nH]1 [Compound (33), 2-(5,7-bis(trifluoromethyl)-1H-benzo[d]imidazol-2-yl)ethanamine] | 113.6 | 136.9 | 150.8 | significantly decreased mechanical hyperalgesia at 1, 2 and 4 hours | 22.4 | 44.7 | 58.1 |  |
| NCC1(CC(=O)O)CCCCC1 [Gabapentin] |  |  |  |  |  |  |  | 55.3 |
| NCC(=O)NCc1nc2cc(C(F)(F)F)cc(C(F)(F)F)c2[nH]1 [Compound (24), 2-amino-N-((5,7-bis(trifluoromethyl)-1H-benzo[d]imidazol-2-yl)methyl)acetamide] | 84.0 | 118.4 | 116.6 | no significant effect on mechanical hyperalgesia at any time point tested | 0.8 | 27.9 | 26.5 |  |
| O=C1CNCCN1Cc1nc2cc(C(F)(F)F)cc(C(F)(F)F)c2[nH]1 [Compound (110), 1-((5,7-bis(trifluoromethyl)-1H-benzo[d]imidazol-2-yl)methyl)piperazin-2-one] | 100.6 | 148.5 | 126.1 | significantly decrease mechanical hyperalgesia at two and four hours | 14.6 | 51.2 | 34.1 |  |
| CN(Cc1nc2cc(C(F)(F)F)cc(C(F)(F)F)c2[nH]1)S(N)(=O)=O [Compound (56), N-{[4,6-bis(trifluoromethyl)-1H-benzimidazol-2-yl]methyl}-N-methylsulfuric diamide] | 110.8 | 131.4 | 140.4 | significantly decreased mechanical hyperalgesia 2 and 4 hours | 19.8 | 40.4 | 49.4 |  |
